Results on 13 compounds are retold here after patent US20240408169A1 (priority 2023, published 2024).

In one experiment the test system is OVCAR3 cells. Nature of the experiment: MTT proliferation assay, OVCAR3.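 Further: compound given as an 8- or 10-point series, one day after plating, with exposure covering roughly 3-4 cell doublings.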 The conditions noted are these: 5 days compound exposure, 1:3 serial dilution starting at 10 μM. In kind it is cell-based. (In general: Formazan colour is commonly taken as a measure of viable cells.)
Another experiment addresses T1, CyclinA2/CDK2 (Homo sapiens, UniProt P20248).
T1 construct: purchased CRELUX Protein Services
Nature of the experiment: Fluorescence Polarization (FP) competitive binding assay, Cyclin A2/Cdk2.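 Further: plates equilibrated two hours at room temperature before polarization reading, IC50 fitted from eight-concentration compound titration curves.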 The note with it: 8 nM Cyclin A2/Cdk2, 2 nM FAM probe; average of 2-3 independent experiments; read-out: Cyclin A FP IC50. On the technique in general: Polarisation of emitted light reports the rotation of a fluorescent probe.

Another experiment concerns the target T2, CyclinB1/CDK1 (Homo sapiens, UniProt P14635).
T2 construct: purchased Eurofins, discovery 14-450
Nature of the experiment: Fluorescence Polarization (FP) competitive binding assay, Cyclin B1/Cdk1.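 Further: fluorescence polarization read after equilibration at room temperature, with IC50 taken from serially diluted dose-response curves.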 The conditions noted are these: 10 nM Cyclin B1/Cdk1, 2 nM FAM probe; average of 2-3 independent experiments; read-out: Cyclin B FP IC50.

For another experiment, the system named is NCI-H1048 cells. The experiment is described as follows: MTT proliferation assay, NCI-H1048.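 Further: Dose-response in 96-well plates over 8 or 10 concentration points, with exposure spanning 3-4 cell doublings.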 The format is cell-based. The conditions noted are these: 5 days compound exposure, 1:3 serial dilution starting at 10 μM.
The next experiment has as its target T3, CyclinE1/CDK2 (Homo sapiens, UniProt P24864).
T3 construct: purchased Eurofins, discovery 14-475
The experiment is described as follows: Fluorescence Polarization (FP) competitive binding assay, Cyclin E1/Cdk2.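 Further: readings taken after two-hour equilibration at room temperature in HEPES buffer with NaCl, DTT, NP-40 and BSA, IC50 fitted from eight-concentration serial dilution series.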 The note with it: 10 nM Cyclin E1/Cdk2, 2 nM FAM probe; average of 2-3 independent experiments; read-out: Cyclin E FP IC50.

*1 amine or outer side, *2 acyl side, *3 side chain or, on linkers, in order; H or OH if unused. Where a SMILES comes first, the peptide text is derived from it. Bridges are numbered along the chain shown (N, C = ends). [ ]: non-standard residue; d: D form. The star is where a group is joined. X122 = CN([C@@H](Cc1cc(Cl)ccc1C1=CCN(C(=O)C(C)(C)C)CC1)C(=O)[*:2])[*:1]; X150 = CC(C)C(=O)N1C2C=C(c3ccc(F)cc3C[C@@H](C(=O)[*:2])N(C)[*:1])CC1CC2; X26 = CN([C@@H](Cc1cc(F)ccc1-c1cnn(C2CC2)c1)C(=O)[*:2])[*:1]; NMehhhLys(Me) = CN([C@@H](CCCCCCCN(C)[*:3])C(=O)[*:2])[*:1]; X180 = CN([C@@H](Cc1cc(F)ccc1-c1cnn2c1CCC2)C(=O)[*:2])[*:1]; NMe3Pal(2-OiPr,5-Cl) = CN[C@@H](Cc1cc(Cl)cnc1OC(C)C)C(=O)O; NMe3Pal(2-OcPr,5-F) = CN[C@@H](Cc1cc(F)cnc1OC1CC1)C(=O)O; NMe(hhhLys) = CN([C@@H](CCCCCCCN[*:3])C(=O)[*:2])[*:1]; Cyclobutanecarbonyl(1-CF3) = O=C(C1(C(F)(F)F)CCC1)*; cBuCO(3,3-F2-1-CF3) = O=C(C1(C(F)(F)F)CC(F)(F)C1)*; Pro(trans-4-F) = O=C(O)[C@@H]1C[C@@H](F)CN1; X27 = O=C([C@]1(C(F)(F)F)CCCCO1)*; Gly(cPr) = N[C@H](C(=O)O)C1CC1

As usually defined, the GI50 is the concentration that inhibits growth by half. For orientation: IC50 means the point on the concentration scale where inhibition reaches its midpoint. Consider `CC(C)C[C@@H]1NC(=O)[C@@H](N(C)C(=O)[C@@H](NC(=O)[C@@H]2C[C@@H](F)CN2C(=O)C2(C(F)(F)F)CC(F)(F)C2)C2CC2)CC=CCCCCN(C)C(=O)[C@H](Cc2cc(F)cnc2OC2CC2)N(C)C1=O` [Example 126], for which the 50% growth inhibitory concentration (GI50) in the experiment with OVCAR3 cells stood at 310 nM; in the experiment on NCI-H1048 cells, 380 nM. Also, the IC50 worked out at 500 nM on CyclinA2/CDK2, 20 nM on CyclinB1/CDK1 and 620 nM at CyclinE1/CDK2.

In the case of `CC(C)C[C@@H]1NC(=O)[C@@H](N(C)C(=O)[C@@H](NC(=O)[C@@H]2C[C@@H](F)CN2C(=O)C2(C(F)(F)F)CC(F)(F)C2)C2CC2)CCCCCCCNC(=O)[C@H](Cc2cc(F)cnc2OC2CC2)N(C)C1=O` [Example 127] ({cBuCO(3,3-F2-1-CF3)}-[Pro(trans-4-F)][Gly(cPr)][NMe(hhhLys)]L[NMe3Pal(2-OcPr,5-F)]; lactam 3-C), the GI50 in the experiment with OVCAR3 cells and with NCI-H1048 cells was 30 nM throughout. Also, the IC50 at CyclinA2/CDK2 is 80 nM; on CyclinB1/CDK1, 20 nM; on CyclinE1/CDK2, 230 nM.

Consider `CC(C)C[C@@H]1NC(=O)[C@@H](N(C)C(=O)[C@@H](NC(=O)[C@@H]2C[C@@H](F)CN2C(=O)C2(C(F)(F)F)CC(F)(F)C2)C2CC2)CCCCCCCN(C)C(=O)[C@H](Cc2cc(F)cnc2OC2CC2)N(C)C1=O` [Example 128] ({cBuCO(3,3-F2-1-CF3)}-[Pro(trans-4-F)][Gly(cPr)][NMehhhLys(Me)]L[NMe3Pal(2-OcPr,5-F)]; lactam 3-C), for which the 50% growth inhibitory concentration (GI50) in the experiment on OVCAR3 cells and in the experiment on NCI-H1048 cells was 30 nM each time. Further, the figures for the IC50 at CyclinA2/CDK2, at CyclinB1/CDK1 and at CyclinE1/CDK2 were 80 nM, 20 nM and 190 nM, respectively.

As for `CC(C)C[C@@H]1NC(=O)[C@@H](N(C)C(=O)[C@@H](NC(=O)[C@@H]2C[C@@H](F)CN2C(=O)C2(C(F)(F)F)CC(F)(F)C2)C2CC2)CCCCCCCNC(=O)[C@H](Cc2cc(Cl)cnc2OC(C)C)N(C)C1=O` [Example 131] ({cBuCO(3,3-F2-1-CF3)}-[Pro(trans-4-F)][Gly(cPr)][NMe(hhhLys)]L[NMe3Pal(2-OiPr,5-Cl)]; lactam 3-C), the GI50 worked out at 400 nM in the experiment on OVCAR3 cells and 290 nM in the experiment with NCI-H1048 cells. In addition, the IC50 at CyclinA2/CDK2 is 30 nM; on CyclinB1/CDK1, 20 nM; at CyclinE1/CDK2 it was 240 nM.

As to `CC(C)C[C@@H]1NC(=O)[C@@H](N(C)C(=O)[C@@H](NC(=O)[C@@H]2C[C@@H](F)CN2C(=O)C2(C(F)(F)F)CCC2)C2CC2)CC=CCCCCNC(=O)[C@H](Cc2cc(F)cnc2OC2CC2)N(C)C1=O` [Example 132], the figures for the GI50 in the experiment with OVCAR3 cells and in the experiment on NCI-H1048 cells were 380 nM and 570 nM, respectively. The IC50 is 710 nM on CyclinA2/CDK2, 20 nM at CyclinB1/CDK1 and 450 nM at CyclinE1/CDK2.

As for `CC(C)C[C@@H]1NC(=O)[C@@H](N(C)C(=O)[C@@H](NC(=O)[C@@H]2C[C@@H](F)CN2C(=O)C2(C(F)(F)F)CCC2)C2CC2)CC=CCCCCN(C)C(=O)[C@H](Cc2cc(F)cnc2OC2CC2)N(C)C1=O` [Example 133], the GI50 in the experiment with OVCAR3 cells is 260 nM; with NCI-H1048 cells, 340 nM. Further, the IC50 was determined as 470 nM at CyclinA2/CDK2, 20 nM on CyclinB1/CDK1 and 340 nM at CyclinE1/CDK2.

As for `CC(C)C[C@@H]1NC(=O)[C@@H](N(C)C(=O)[C@@H](NC(=O)[C@@H]2C[C@@H](F)CN2C(=O)C2(C(F)(F)F)CCC2)C2CC2)CCCCCCCNC(=O)[C@H](Cc2cc(F)cnc2OC2CC2)N(C)C1=O` [Example 134] ({Cyclobutanecarbonyl(1-CF3)}-[Pro(trans-4-F)][Gly(cPr)][NMe(hhhLys)]L[NMe3Pal(2-OcPr,5-F)]; lactam 3-C), the GI50 with OVCAR3 cells was determined as 40 nM; in the experiment with NCI-H1048 cells, 30 nM. Moreover, the IC50 on CyclinA2/CDK2 was found to be 100 nM; on CyclinB1/CDK1 it was 20 nM; at CyclinE1/CDK2 it was 120 nM.

In the case of `CC(C)C[C@@H]1NC(=O)[C@@H](N(C)C(=O)[C@@H](NC(=O)[C@@H]2C[C@@H](F)CN2C(=O)C2(C(F)(F)F)CCC2)C2CC2)CCCCCCCN(C)C(=O)[C@H](Cc2cc(F)cnc2OC2CC2)N(C)C1=O` [Example 135] ({Cyclobutanecarbonyl(1-CF3)}-[Pro(trans-4-F)][Gly(cPr)][NMehhhLys(Me)]L[NMe3Pal(2-OcPr,5-F)]; lactam 3-C), the results for the GI50 with OVCAR3 cells and in the experiment on NCI-H1048 cells were 20 nM and 30 nM, respectively. Also, the IC50 on CyclinA2/CDK2 came out at 80 nM; on CyclinB1/CDK1 it was 20 nM; at CyclinE1/CDK2, 120 nM.

For the compound `CC(C)C[C@@H]1NC(=O)[C@@H](N(C)C(=O)[C@@H](NC(=O)[C@@H]2C[C@@H](F)CN2C(=O)C2(C(F)(F)F)CC(F)(F)C2)C2CC2)CCCCCCCN(C)C(=O)[C@H](Cc2cc(Cl)ccc2C2=CCN(C(=O)C(C)(C)C)CC2)N(C)C1=O` [Example 144] ({cBuCO(3,3-F2-1-CF3)}-[Pro(trans-4-F)][Gly(cPr)][NMehhhLys(Me)]L[X122]; lactam 3-C), the GI50 with OVCAR3 cells and with NCI-H1048 cells was 70 nM in each case. The IC50 at CyclinA2/CDK2 is 20 nM; at CyclinB1/CDK1 it was 20 nM; at CyclinE1/CDK2, 840 nM.

As for `CC(C)C[C@@H]1NC(=O)[C@@H](N(C)C(=O)[C@@H](NC(=O)[C@@H]2C[C@@H](F)CN2C(=O)[C@]2(C(F)(F)F)CCCCO2)C2CC2)CCCCCCCN(C)C(=O)[C@H](Cc2cc(F)ccc2-c2cnn(C3CC3)c2)N(C)C1=O` [Example 146] (X27-[Pro(trans-4-F)][Gly(cPr)][NMehhhLys(Me)]L[X26]; lactam 3-C), the GI50 in the experiment on OVCAR3 cells and with NCI-H1048 cells was 20 nM in each case. Also, the 50% inhibitory concentration (IC50) on CyclinA2/CDK2 amounted to 30 nM; on CyclinB1/CDK1 it was 20 nM; on CyclinE1/CDK2, 100 nM.

For `CC(C)C[C@@H]1NC(=O)[C@@H](N(C)C(=O)[C@@H](NC(=O)[C@@H]2C[C@@H](F)CN2C(=O)C2(C(F)(F)F)CC(F)(F)C2)C2CC2)CCCCCCCN(C)C(=O)[C@H](Cc2cc(F)ccc2-c2cnn3c2CCC3)N(C)C1=O` [Example 148] ({cBuCO(3,3-F2-1-CF3)}-[Pro(trans-4-F)][Gly(cPr)][NMehhhLys(Me)]L[X180]; lactam 3-C), the GI50 with OVCAR3 cells and in the experiment on NCI-H1048 cells was 10 nM throughout. Further, the IC50 came out at 30 nM on CyclinA2/CDK2, 20 nM at CyclinB1/CDK1 and 310 nM on CyclinE1/CDK2.

For `CC(=O)N1C2C=C(c3ccc(F)cc3C[C@H]3C(=O)N(C)CCCCCCC[C@H](N(C)C(=O)[C@@H](NC(=O)[C@@H]4C[C@@H](F)CN4C(=O)C4(C(F)(F)F)CC(F)(F)C4)C4CC4)C(=O)N[C@@H](CC(C)C)C(=O)N3C)CC1CC2` (some centres unmarked) [Example 149], the 50% growth inhibitory concentration (GI50) was 40 nM with OVCAR3 cells and 30 nM with NCI-H1048 cells. Besides, the IC50 on CyclinA2/CDK2 is 20 nM; on CyclinB1/CDK1, 20 nM; at CyclinE1/CDK2, 560 nM.

For the compound `CC(C)C[C@@H]1NC(=O)[C@@H](N(C)C(=O)[C@@H](NC(=O)[C@@H]2C[C@@H](F)CN2C(=O)C2(C(F)(F)F)CC(F)(F)C2)C2CC2)CCCCCCCN(C)C(=O)[C@H](Cc2cc(F)ccc2C2=CC3CCC(C2)N3C(=O)C(C)C)N(C)C1=O` (stereo partly drawn) [Example 150] ({cBuCO(3,3-F2-1-CF3)}-[Pro(trans-4-F)][Gly(cPr)][NMehhhLys(Me)]L[X150]; lactam 3-C), the GI50 in the experiment with OVCAR3 cells amounted to 40 nM; in the experiment on NCI-H1048 cells, 20 nM. For the same compound, the results for the IC50 at CyclinA2/CDK2, on CyclinB1/CDK1 and at CyclinE1/CDK2 were 20 nM, 20 nM and 210 nM, respectively.
